Molecules are shown by their SMILES.

This assay concerns human breast MDA-MB-231•X1 cells. Nature of the assay: Tumor xenograft study. Format: in vivo, mouse. The note with it: MDA-MB-231•X1 xenograft in female nude mice, iv Qwk. The procedure: All procedures involving animals were performed in accordance with the guidelines of the Genentech Institutional Animal Care and Use Committee. Cancer cells such as Human breast MDA-MB-231, colorectal, Colo205, or NSCLC, Calu6 cancer cells were obtained from American Type Culture Collection (Manassas, Va.). Cells were resuspended in HBSS (Colo205) or the cell suspension was mixed 1:1 with Matrigel (BD Biosciences; MDA-MB-231, Calu6). The cells (1.5×10^7 for MDA-MB-231; 5.0×10^7 for Colo205, Calu6) were then implanted subcutaneously into the right flank of female nude mice (Charles River Laboratories, Hollister, Calif.) aged 6-8 weeks. Tumor volumes were calculated using the mean diameter measured with vernier calipers using the formula v=0.5×a×b^2, were a and b are the largest and smallest perpendicular tumor diameters, respectively. Ten mice with the appropriate mean tumor volume were assigned randomly to each of six groups. The mean tumor volume±the standard error of the mean (SEM) for all six groups was 168±3 mm^3 at the initiation of treatment (Day 0). The mice were observed on each day of the study, and tumor volumes and body weights were measured twice each week.

In turn, `CN[C@@H](C)C(=O)N[C@H](C(=O)N1CCCC1C(=O)Nc1snnc1-c1ccccc1)C1CCCCC1` (some centres unmarked) [III] registered an MED of 18.6 mg/kg.
The figure for `CN[C@@H](C)C(=O)N[C@H](C(=O)N1CCC[C@H]1C(=O)Nc1sc(-c2ncco2)nc1-c1ccccc1)C1CCCCC1` [Ia, (S)-1-[(S)-2-cyclohexyl-2-((S)-2-methylamino-propionylamino)-acetyl]-pyrrolidine-2-carboxylic acid (2-oxazol-2-yl-4-phenyl-thiazol-5-yl)-amide] is 3.4 mg/kg.

These data come from patent US8716236B2, “Inhibitors of IAP” (Genentech, Inc., priority 2012, dated 2014).
